{
  "source": "patent US20190053489A1",
  "about": "“ANTIMICROBIAL COMPOSITION” (NATIONAL UNIVERSITY CORPORATION TOKYO MEDICAL AND DENTAL …, priority 2016, published 2019)",
  "key": {"MRSA IID 1677 [1]": {"test_system": "MRSA IID 1677", "test": "Proliferation suppression against MRSA in a standard medium (colony count method)", "type": "cell-based, Methicillin-Resistant Staphylococcus Aureus (MRSA)", "procedure": "(§1) This test employed MRSA IID 1677, and this microbe strain was inoculated in 20 ml of a normal broth medium (manufactured by Eiken Chemical Co., Ltd., ‘Eiken’) for overnight shake culture at 37° C. The cultured microbial solution was collected by centrifugation (3000 rpm, 10 minutes), suspended with sterilized water, and then diluted with sterilized water so that the optical density would satisfy OD600=1.0. The resultant was diluted 2000 times (corresponding to 10^6 CFU/ml) to prepare a reaction microbial solution.\nHere, the TSB test medium samples were prepared using 10 ml of TSB medium (BD BBL™) added with 200 μl of 1 M phosphate buffer (pH 7.0), followed by further addition of\n(1) 10 ml of sterilized water, ([…]), (3) 10 ml of lysozyme alone with a concentration of 0.2% (the concentration after addition was 0.1%), (4) 10 ml of chitosan alone with a concentration of 0.2% (the concentration after addition was 0.1%), and (5) 10 ml of the mixture of lysozyme and chitosan with a concentration of 0.2% (the concentration of each after addition was 0.1%).\nAfter that, 100 μl was extracted and seeded on the MH agar medium, and the number of colonies produced was observed (colony count method). […] Note that the results of FIG. 7 are each the average value of the values obtained by carrying out the colony count method three times.\nNote that the results of FIG. 8 are each the average value obtained with two replicate samples."}, "pseudomonas aeruginosa": {"test_system": "pseudomonas aeruginosa", "test": "Observation of morphological change in pseudomonas aeruginosa by electron microscope", "type": "cell-based", "procedure": "Next, the morphological change in MRSA was observed by using a transmission electron microscope. This observation with a transmission electron microscope was carried out as follows: the sample was sliced in 50 nm with a diamond knife as the pretreatment and was stained with uranium acetate and lead citrate, and a transmission electron microscope (JEM-1400 manufactured by JEOL Ltd.) was used. In addition, the samples were MRSA added with physiological saline and MRSA added with a lysozyme-chitosan complex with a concentration of 0.2% by mass.\nNote that the morphological change in the case of adding the lysozyme-chitosan complex to pseudomonas aeruginosa was also observed using a transmission electron microscope in the same manner as above. […] In other words, the lysozyme-chitosan complex also has a resistant microbe inactivation effect for pseudomonas aeruginosa.\nObservation was carried out with a scanning electron microscope for the morphological changes in MRSA and pseudomonas aeruginosa treated with the lysozyme-chitosan complex, lysozyme alone, chitosan alone, and the mixture of lysozyme and chitosan (treatment time: 2 hours). This observation with a scanning electron microscope was carried out in the same manner as Example 8 described above: osmium coating (4 nm) was performed as the conductive treatment, and a low-acceleration ultra-high resolution scanning electron microscope (SU 9000 manufactured by Hitachi High-Technologies Corporation (accelerating voltage: 1 kV)) was used. In addition, the samples were MRSA or pseudomonas aeruginosa added with physiological saline, a lysozyme-chitosan complex with a concentration of 0.1% by mass, lysozyme of 0.05% by mass, chitosan of 0.05% by mass, and a mixture of lysozyme and chitosan, each with 0.05% by mass."}, "MRSA IID 1677 [2]": {"test_system": "MRSA IID 1677", "test": "Proliferation suppression against MRSA in a diluted medium (OD600)", "type": "cell-based, Methicillin-Resistant Staphylococcus Aureus (MRSA)", "settings": "diluted 1/2.5 LB medium, 37° C., OD 600 nm; complex 0.001%, lysozyme, chitosan and each of mixture 0.0005%; FIG. 1", "procedure": "as §1, with “cultured” for “inoculated”, “in” for “in 20 ml of”, “medium” for “medium (manufactured by Eiken Chemical Co., Ltd., ‘Eiken’) for overnight shake culture”, “C. for 20 hours.” for “C.”\nEach of the LB test medium samples was added with 100 μl of reaction microbial solution and was shake cultured under the condition of 37° C. for 48 hours. Here, the LB test medium samples were prepared using 10 ml of 1/2.5 LB medium added with\n(1) 10 ml of sterilized water, (2) 10 ml of the lysozyme-chitosan complex with a concentration of 0.002% (the concentration after addition was 0.001%), (3) 10 ml of lysozyme alone with a concentration of 0.001% (the concentration after addition was 0.0005%), (4) 10 ml of chitosan alone with a concentration of 0.001% (the concentration after addition was 0.0005%), and (5) 10 ml of the mixture of lysozyme and chitosan with a concentration of 0.001% (the concentration of each after addition was 0.0005%).\nAfter that, 3 ml was extracted at time intervals (0, 1, and 2 days), and the optical density was measured at an absorption wavelength of 600 nm. […]"}, "[3]": {"test_system": "Pseudomonas aeruginosa NBRC 13275", "test": "Proliferation suppression against pseudomonas aeruginosa NBRC 13275 in a standard medium (colony count method)", "type": "cell-based", "settings": "standard TSB medium; for ratio of the number of pseudomonas aeruginosa (NBRC 13275) colonies produced to the control: 6 hours later, FIG. 11", "excerpt": "This test employed Pseudomonas aeruginosa NBRC 13275 or PAO 1, and other procedures were the same as those of [Example 5] described earlier.\nNote that the results of FIG. 9 are each the average value of the values obtained by carrying out the colony count method three times and that the results of FIG. 10 are each the average value of the values obtained by carrying out the colony count method five times.\nNote that the results of FIG. 11 are each the average value obtained with three replicate samples."}},
  "data": [
    {"substance": "lysozyme-chitosan complex: complex of lysozyme and water-soluble chitosan (molecular weight 14000 Da) bound to each other through the Maillard reaction", "values": [
      {"measurement": "proliferation suppression effect against MRSA (ratio of colonies produced 6 hours later to control)", "setting": "MRSA IID 1677 [1]; standard TSB medium with phosphate buffer pH 7.0, complex 0.2%, lysozyme, chitosan, each of mixture 0.1%, FIG. 7", "result": "marked improvement effect compared to chitosan alone and the mixture of lysozyme and chitosan"},
      {"measurement": "proliferation suppression effect against MRSA 9 hours later", "setting": "MRSA IID 1677 [1]; standard TSB medium, any of the complex concentrations 0.01%, 0.05%, 0.1%, 0.2%, FIG. 8", "result": "sufficient proliferation suppression effect"},
      {"measurement": "ratio of the number of MRSA colonies produced to the control", "setting": "MRSA IID 1677 [1]; standard TSB medium, complex 0.2%, past 6 hours, FIG. 8", "result": "~0", "unit": "%"},
      {"measurement": "morphological change in pseudomonas aeruginosa, transmission electron microscope", "setting": "pseudomonas aeruginosa; FIG. 15", "result": "destroys the cell walls of pseudomonas aeruginosa"},
      {"measurement": "morphological change in pseudomonas aeruginosa, scanning electron microscope, treatment time 2 hours", "setting": "pseudomonas aeruginosa; complex 0.1% by mass, lysozyme 0.05%, chitosan 0.05%, mixture each 0.05%, FIG. 17", "result": "changed to a large extent"},
      {"measurement": "proliferation suppression effect against MRSA for 48 hours", "setting": "MRSA IID 1677 [2]", "result": "marked improvement effect compared to lysozyme alone and the mixture of lysozyme and chitosan"},
      {"measurement": "proliferation suppression effect against NBRC 13275", "setting": "[3]; colony count 6 hours later, complex 0.2%, others 0.1%, FIG. 9", "result": "marked improvement effect compared to lysozyme alone, chitosan alone, and the mixture of lysozyme and chitosan"},
      {"measurement": "ratio of the number of pseudomonas aeruginosa (NBRC 13275) colonies produced to the control", "setting": "[3]; complex 0.2%", "result": "~0", "unit": "%"},
      {"measurement": "ratio of the number of pseudomonas aeruginosa (NBRC 13275) colonies produced to the control", "setting": "[3]; complex 0.5%", "result": "~0", "unit": "%"}
    ]}
  ]
}
